Test results taken from article PMC10962654 (Journal of Food and Drug Analysis, 2023).
Read-outs that look alike come from different tables or passages of the source.

Legend:
[1] = MI/R rats, plasma, n = 6
[2] = system: cTn I; test: Plasma cTn I; assay type: in vivo, Sprague Dawley rats; details: MI/R rats, Sigmoid-Emax model
[3] = system: CK-MB; test: Plasma CK-MB; assay type: in vivo, Sprague Dawley rats; details: MI/R rats, Sigmoid-Emax model
[4] = system: α-HBDH; test: Plasma α-HBDH; assay type: in vivo, Sprague Dawley rats; details: MI/R rats, Sigmoid-Emax model
[5] = system: IMA; test: Plasma IMA; assay type: in vivo, Sprague Dawley rats; details: MI/R rats, Sigmoid-Emax model

Row | Molecule | CL1 ([1]; GHI-H (GHI 10 mL/kg, i.v.)) | CL2 ([1]; GHI-H (GHI 10 mL/kg, i.v.)) | K10 ([1]; GHI-H (GHI 10 mL/kg, i.v.)) | K12 ([1]; GHI-H (GHI 10 mL/kg, i.v.)) | K21 ([1]; GHI-H (GHI 10 mL/kg, i.v.)) | Q ([1]; GHI-H (GHI 10 mL/kg, i.v.)) | V1 ([1]; GHI-H (GHI 10 mL/kg, i.v.)) | V2 ([1]; GHI-H (GHI 10 mL/kg, i.v.)) | t1/2α ([1]; GHI-H (GHI 10 mL/kg, i.v.)) | CL1 ([1]; GHI-L (GHI […], i.v.)) | CL2 ([1]; GHI-L (GHI […], i.v.)) | K10 ([1]; GHI-L (GHI […], i.v.)) | K12 ([1]; GHI-L (GHI […], i.v.)) | K21 ([1]; GHI-L (GHI […], i.v.)) | Q ([1]; GHI-L (GHI […], i.v.)) | V1 ([1]; GHI-L (GHI […], i.v.)) | t1/2α ([1]; GHI-L (GHI […], i.v.)) | CL1 ([1]; GHI-M (GHI 5 mL/kg, i.v.)) | CL2 ([1]; GHI-M (GHI 5 mL/kg, i.v.)) | K10 ([1]; GHI-M (GHI 5 mL/kg, i.v.)) | further results
1 | C[C@@H]1O[C@@H](OC[C@H]2O[C@@H](Oc3c(-c4ccc(O)c(O)c4)oc4cc(O)cc(O)c4c3=O)[C@H](O)[C@@H](O)[C@@H]2O)[C@H](O)[C@H](O)[C@H]1O [Rutin, rutin] | 46.88 ± 7.65 mL/min/kg | 111.9 ± 61.47 mL/min/kg | 25.55 ± 19.846 h⁻¹ | 42.24 ± 19.866 h⁻¹ | 7.333 ± 1.971 h⁻¹ | 111.8 ± 61.52 mL/min/kg | 0.239 ± 0.209 L/kg | 0.855 ± 0.277 L/kg | 0.72 ± 0.36 min | 63.25 ± 8.27 mL/min/kg | 104.4 ± 13.5 mL/min/kg | 10.125 ± 0.978 h⁻¹ | 16.754 ± 1.998 h⁻¹ | 3.748 ± 0.381 h⁻¹ | 104.4 ± 13.6 mL/min/kg | 0.379 ± 0.071 L/kg | 1.44 ± 0.12 min | 47.87 ± 4.4 mL/min/kg | 83.63 ± 11.1 mL/min/kg | 6.448 ± 1.858 h⁻¹ | K12 ([1]; GHI-M (GHI 5 mL/kg, i.v.)): 11.318 ± 3.536 h⁻¹; K21 ([1]; GHI-M (GHI 5 mL/kg, i.v.)): 4.751 ± 1.024 h⁻¹; Q ([1]; GHI-M (GHI 5 mL/kg, i.v.)): 83.63 ± 11.1 mL/min/kg; V1 ([1]; GHI-M (GHI 5 mL/kg, i.v.)): 0.466 ± 0.88 L/kg; V2 ([1]; GHI-M (GHI 5 mL/kg, i.v.)): 1.075 ± 0.133 L/kg; t1/2α ([1]; GHI-M (GHI 5 mL/kg, i.v.)): 2.1 ± 0.6 min; Emax (maximal effect) of optimal PK/PD equation, ΔcTn I ([2]; GHI-L ([…], i.v.)): 4.632
2 | hydroxysafflor yellow A | – | – | – | – | – | – | – | – | – | – | – | – | – | – | – | – | – | – | – | – | Emax (maximal effect) of optimal PK/PD equation, ΔCK-MB ([3]; GHI-L ([…], i.v.)): 11.082; Emax (maximal effect) of optimal PK/PD equation, ΔCK-MB ([3]; GHI-M (5 mL/kg, i.v.)): 27.2; Emax (maximal effect) of optimal PK/PD equation, Δα-HBDH ([4]; GHI-L ([…], i.v.)): 49.45; Emax (maximal effect) of optimal PK/PD equation, Δα-HBDH ([4]; GHI-M (5 mL/kg, i.v.)): 88.223; Emax (maximal effect) of optimal PK/PD equation, ΔIMA ([5]; GHI-L ([…], i.v.)): 31.473; Emax (maximal effect) of optimal PK/PD equation, ΔIMA ([5]; GHI-M (5 mL/kg, i.v.)): 49.851; Emax (maximal effect) of optimal PK/PD equation, ΔcTn I ([2]; GHI-L ([…], i.v.)): 4.628; Emax (maximal effect) of optimal PK/PD equation, ΔcTn I ([2]; GHI-M (5 mL/kg, i.v.)): 7.341
3 | O=c1c(O[C@@H]2O[C@H](CO)[C@H](O)[C@H](O)[C@H]2O)c(-c2ccc(O)c(O)c2)oc2cc(O)cc(O)c12 [Hyperoside, hyperoside] | 81.92 ± 12 mL/min/kg | 120.9 ± 37.88 mL/min/kg | 21.205 ± 16.45 h⁻¹ | 26.235 ± 8.526 h⁻¹ | 6.031 ± 0.862 h⁻¹ | 121 ± 37.85 mL/min/kg | 0.309 ± 0.126 L/kg | 1.207 ± 0.352 L/kg | 0.9 ± 0.24 min | 88.93 ± 8.22 mL/min/kg | 144.8 ± 10.5 mL/min/kg | 11.259 ± 2.48 h⁻¹ | 18.242 ± 3.358 h⁻¹ | 2.929 ± 0.214 h⁻¹ | 144.8 ± 10.5 mL/min/kg | 0.493 ± 0.117 L/kg | 1.38 ± 0.3 min | 76.58 ± 3.37 mL/min/kg | 76.22 ± 11.2 mL/min/kg | 14.742 ± 5.174 h⁻¹ | V2 ([1]; GHI-L (GHI […], i.v.)): 2.979 ± 0.292 L/kg; K12 ([1]; GHI-M (GHI 5 mL/kg, i.v.)): 14.086 ± 2.688 h⁻¹; K21 ([1]; GHI-M (GHI 5 mL/kg, i.v.)): 4.889 ± 0.407 h⁻¹; Q ([1]; GHI-M (GHI 5 mL/kg, i.v.)): 76.2 ± 11.2 mL/min/kg; V1 ([1]; GHI-M (GHI 5 mL/kg, i.v.)): 0.34 ± 0.1 L/kg; V2 ([1]; GHI-M (GHI 5 mL/kg, i.v.)): 0.935 ± 0.119 L/kg; t1/2α ([1]; GHI-M (GHI 5 mL/kg, i.v.)): 1.38 ± 0.3 min
4 | O=C(O)/C=C/c1ccc(O)cc1 [p-Coumaric acid, p-coumaric acid] | 57.82 ± 3.12 mL/min/kg | 111 ± 36.42 mL/min/kg | 4.878 ± 0.808 h⁻¹ | 9.545 ± 4.156 h⁻¹ | 10.071 ± 3.659 h⁻¹ | 110.9 ± 36.38 mL/min/kg | 0.723 ± 0.095 L/kg | 0.669 ± 0.07 L/kg | 2.04 ± 0.6 min | 55.28 ± 6.15 mL/min/kg | 98.48 ± 21.73 mL/min/kg | 8.039 ± 2.934 h⁻¹ | 14.117 ± 4.736 h⁻¹ | 4.662 ± 1.024 h⁻¹ | 98.48 ± 21.67 mL/min/kg | 0.462 ± 0.17 L/kg | 1.8 ± 0.54 min | 46.8 ± 2.23 mL/min/kg | 115.3 ± 41 mL/min/kg | 4.277 ± 0.897 h⁻¹ | V2 ([1]; GHI-L (GHI […], i.v.)): 1.272 ± 0.124 L/kg; K12 ([1]; GHI-M (GHI 5 mL/kg, i.v.)): 11.023 ± 5.384 h⁻¹; K21 ([1]; GHI-M (GHI 5 mL/kg, i.v.)): 10.302 ± 3.876 h⁻¹; Q ([1]; GHI-M (GHI 5 mL/kg, i.v.)): 115.3 ± 41.02 mL/min/kg; V1 ([1]; GHI-M (GHI 5 mL/kg, i.v.)): 0.677 ± 0.122 L/kg; V2 ([1]; GHI-M (GHI 5 mL/kg, i.v.)): 0.7 ± 0.142 L/kg; t1/2α ([1]; GHI-M (GHI 5 mL/kg, i.v.)): 2.22 ± 1.5 min; Emax (maximal effect) of optimal PK/PD equation, ΔCK-MB ([3]; GHI-H (10 mL/kg, i.v.)): 15.798; Emax (maximal effect) of optimal PK/PD equation, ΔCK-MB ([3]; GHI-L ([…], i.v.)): 6.058; Emax (maximal effect) of optimal PK/PD equation, ΔCK-MB ([3]; GHI-M (5 mL/kg, i.v.)): 15.943; Emax (maximal effect) of optimal PK/PD equation, Δα-HBDH ([4]; GHI-H (10 mL/kg, i.v.)): 89.907; Emax (maximal effect) of optimal PK/PD equation, Δα-HBDH ([4]; GHI-L ([…], i.v.)): 37.993; Emax (maximal effect) of optimal PK/PD equation, Δα-HBDH ([4]; GHI-M (5 mL/kg, i.v.)): 71.86; Emax (maximal effect) of optimal PK/PD equation, ΔIMA ([5]; GHI-H (10 mL/kg, i.v.)): 62.712; Emax (maximal effect) of optimal PK/PD equation, ΔIMA ([5]; GHI-L ([…], i.v.)): 19.558; Emax (maximal effect) of optimal PK/PD equation, ΔIMA ([5]; GHI-M (5 mL/kg, i.v.)): 49.851; Emax (maximal effect) of optimal PK/PD equation, ΔcTn I ([2]; GHI-H (10 mL/kg, i.v.)): 9.007; Emax (maximal effect) of optimal PK/PD equation, ΔcTn I ([2]; GHI-L ([…], i.v.)): 2.907; Emax (maximal effect) of optimal PK/PD equation, ΔcTn I ([2]; GHI-M (5 mL/kg, i.v.)): 7.258
